PubChem BioAssay (NCI)
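GI50 = concentration required for 50% inhibition of growth. TGI is the concentration that stops growth completely.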

Key:
Experiment in all cases: NCI-60 cell line screen, 384-well format
[1] = tested on: CAKI-1 renal
[2] = tested on: NCI-H322M lung
[3] = tested on: MOLT-4 leukemia
[4] = tested on: M14 melanoma
[5] = tested on: MALME-3M melanoma
[6] = tested on: RXF 393 renal
[7] = tested on: SNB-19 CNS
[8] = tested on: HS 578T breast
[9] = tested on: SF-268 CNS
[10] = tested on: OVCAR-4 ovarian
[11] = tested on: SK-MEL-2 melanoma
[12] = tested on: HCT-15 colon
[13] = tested on: NCI-H226 lung
[14] = tested on: UACC-257 melanoma
[15] = tested on: EKVX NSCLC
[16] = tested on: MDA-MB-231 breast
[17] = tested on: KM12 colon
[18] = tested on: 786-0 renal
[19] = tested on: HOP-92 NSCLC
[20] = tested on: LOX IMVI melanoma
[21] = tested on: COLO 205 colon
[22] = tested on: SK-MEL-28 melanoma
[23] = tested on: RPMI-8226 leukemia
[24] = tested on: NCI-H460 NSCLC
[25] = tested on: HOP-62 NSCLC
[26] = tested on: HT29 colon
[27] = tested on: K-562 leukemia
[28] = tested on: A549 NSCLC
[29] = tested on: CCRF-CEM leukemia
[30] = tested on: NCI-H522 lung
[31] = tested on: SK-OV-3 ovarian
[32] = tested on: UACC-62 melanoma
[33] = tested on: SF-295 CNS
[34] = tested on: OVCAR-3 ovarian
[35] = tested on: ACHN renal
[36] = tested on: OVCAR-5 ovarian
[37] = tested on: MDA-MB-435 melanoma
[38] = tested on: NCI-H23 lung
[39] = tested on: UO-31 renal
[40] = tested on: SF-539 CNS
[41] = tested on: HL-60(TB) leukemia
[42] = tested on: MDA-MB-468 breast
[43] = tested on: TK-10 renal
[44] = tested on: PC-3 prostate
[45] = tested on: HCC-2998 colon
[46] = tested on: SK-MEL-5 melanoma
[47] = tested on: SR leukemia
[48] = tested on: SNB-75 CNS
[49] = tested on: U251 glioblastoma
[50] = tested on: SN12C renal
[51] = tested on: DU-145 prostate
[52] = tested on: MCF7 breast
[53] = tested on: SW-620 colon
[54] = tested on: IGROV1 ovarian
[55] = tested on: HCT-116 colon
[56] = tested on: A498 renal
[57] = tested on: BT-549 breast

Work on `Cc1[nH]c2ccc(F)cc2c1-c1nc2c3cccnc3c3ncccc3c2[nH]1` yielded a GI50 [1] of 0.218 µM, a TGI [1] of 0.572 µM and a GI50 [2] of 0.125 µM. For the same compound, the TGI [2] was 28.5 µM, the GI50 [3] was 0.0374 µM and the TGI [3] was 0.151 µM. For the same compound, the GI50 [4] was 0.192 µM, the TGI [4] was 0.472 µM and the GI50 [5] was 0.195 µM. It also gave a TGI [5] of 0.743 µM, a GI50 [6] of 0.0314 µM and a TGI [6] of 0.192 µM. For the same compound, the GI50 [7] was 0.241 µM, the TGI [7] was 0.883 µM and the GI50 [8] was 0.318 µM. The TGI [8] was 12.1 µM, the GI50 [9] was 0.025 µM and the TGI [9] was 0.0831 µM. It also gave a GI50 [10] of 0.096 µM, a TGI [10] of over 100 µM and a GI50 [11] of 0.353 µM. The TGI [11] was 0.934 µM, the GI50 [12] was 0.245 µM and the TGI [12] was 29.9 µM. It also gave a GI50 [13] of 0.147 µM, a TGI [13] of 0.683 µM and a GI50 [14] of 0.227 µM. The TGI [14] was 0.603 µM, the GI50 [15] was 0.122 µM and the TGI [15] was 14.2 µM. For the same compound, the GI50 [16] was 0.228 µM, the TGI [16] was 2.93 µM and the GI50 [17] was 0.266 µM. For the same compound, the TGI [17] was over 100 µM, the GI50 [18] was 0.176 µM and the TGI [18] was 0.586 µM. For the same compound, the GI50 [19] was 0.194 µM, the TGI [19] was 0.742 µM and the GI50 [20] was 0.0625 µM. For the same compound, the TGI [20] was 0.231 µM, the GI50 [21] was 0.0353 µM and the TGI [21] was 0.141 µM. For the same compound, the GI50 [22] was 0.272 µM, the TGI [22] was over 100 µM and the GI50 [23] was 3.11 µM. It also gave a TGI [23] of 15 µM, a GI50 [24] of 0.367 µM and a TGI [24] of 4.26 µM. The GI50 [25] was 0.129 µM, the TGI [25] was 0.345 µM and the GI50 [26] was 0.338 µM. It also gave a TGI [26] of over 100 µM, a GI50 [27] of 0.217 µM and a TGI [27] of over 100 µM. The GI50 [28] was 0.421 µM, the TGI [28] was over 100 µM and the GI50 [29] was 0.0376 µM. It also gave a TGI [29] of 0.136 µM, a GI50 [30] of 0.244 µM and a TGI [30] of 0.852 µM. The GI50 [31] was 0.0449 µM, the TGI [31] was 9.45 µM and the GI50 [32] was 0.204 µM. The TGI [32] was 0.587 µM, the GI50 [33] was 0.303 µM and the TGI [33] was 12 µM. The GI50 [34] was 0.0278 µM, the TGI [34] was 22.2 µM and the GI50 [35] was 0.241 µM. The TGI [35] was 0.686 µM, the GI50 [36] was 0.298 µM and the TGI [36] was 17.6 µM. The GI50 [37] was 0.306 µM, the TGI [37] was over 100 µM and the GI50 [38] was 0.233 µM. The TGI [38] was 0.704 µM, the GI50 [39] was 0.319 µM and the TGI [39] was 7.71 µM. For the same compound, the GI50 [40] was 0.125 µM, the TGI [40] was 0.404 µM and the GI50 [41] was 0.0453 µM. For the same compound, the TGI [41] was 0.176 µM, the GI50 [42] was 0.0745 µM and the TGI [42] was 0.214 µM. The GI50 [43] was 0.45 µM, the TGI [43] was 18.8 µM and the GI50 [44] was 0.0699 µM. The TGI [44] was over 100 µM, the GI50 [45] was 0.0242 µM and the TGI [45] was over 100 µM. It also gave a GI50 [46] of 0.0252 µM, a TGI [46] of 0.119 µM and a GI50 [47] of 0.0192 µM. The TGI [47] was 0.0339 µM, the GI50 [48] was 0.23 µM and the TGI [48] was 0.759 µM. For the same compound, the GI50 [49] was 0.0637 µM, the TGI [49] was 0.71 µM and the GI50 [50] was 0.161 µM. It also gave a TGI [50] of 0.397 µM, a GI50 [51] of 0.0607 µM and a TGI [51] of 0.413 µM. It also gave a GI50 [52] of 0.298 µM, a TGI [52] of 40.3 µM and a GI50 [53] of 0.336 µM. The TGI [53] was over 100 µM, the GI50 [54] was 0.182 µM and the TGI [54] was 32.9 µM. For the same compound, the GI50 [55] was 0.0521 µM, the TGI [55] was 0.654 µM and the GI50 [56] was 0.205 µM. It also gave a TGI [56] of over 100 µM, a GI50 [57] of 0.0418 µM and a TGI [57] of 0.254 µM.
